{
  "source": "patent US20090131329A1",
  "about": "“Treatment for allograft rejection” (priority 2007, published 2009)",
  "key": {"[1]": {"system": "lung allograft (BN donor into F344 recipient)", "experiment": "Macroscopic findings of the allograft on day 7", "format": "in vivo, rat", "conditions": "controls: complete consolidation without aeration", "protocol": "Transplant Model. Rat left-lung transplantation was performed in a RT1 (MHC) incompatible donor-recipient combination from a BN donor into a F344 recipient. Complete graft rejection in this severely mismatched combination would be expected histologically and radiographically on day 7 postoperatively. The orthotopic left-lung transplantation procedure used in this study was a modification of the ‘cuff’ technique for vascular anastomosis (Mizuta et al., 1989). In brief, the lung grafts were flushed and immersed in ice-cold normal saline solution before implantation. Cuffs with internal diameters of 1.65 mm and 2.20 mm for pulmonary arterial and venous anastomosis, respectively, were used. The left main bronchus was anastomosed using 8-0 prolene running sutures. In rats, radiographic assessment of a left-lung transplantation graft can be obscured by the right lung. Therefore, a postcaval lobectomy on the recipient's right lung was performed immediately after implantation so as to facilitate radiographic assessment of the left-lung allograft. […] Experimental groups. Recipient animals were divided into 4 groups (Table 1). Animals from group A (early administration; n=6) received 0.5 ml of phosphate-buffered saline (PBS) solution containing a 10.0 mg/kg concentration of antileukinate intramuscularly 24 hours before (day −1) and immediately after transplantation (day 0). […]"}, "[2]": {"system": "neutrophils in the lung allograft", "experiment": "Number of neutrophils infiltrated into lung grafts", "format": "in vivo, rat", "conditions": "day 7", "protocol": "Transplant Model. Rat left-lung transplantation was performed in a RT1 (MHC) incompatible donor-recipient combination from a BN donor into a F344 recipient. Complete graft rejection in this severely mismatched combination would be expected histologically and radiographically on day 7 postoperatively. The orthotopic left-lung transplantation procedure used in this study was a modification of the ‘cuff’ technique for vascular anastomosis (Mizuta et al., 1989). In brief, the lung grafts were flushed and immersed in ice-cold normal saline solution before implantation. Cuffs with internal diameters of 1.65 mm and 2.20 mm for pulmonary arterial and venous anastomosis, respectively, were used. […] Acute rejection was evaluated histologically and assigned a rejection score (RS) based on the clinical international working formulation: IWF grade 0, no significant abnormality; grade 1, scattered infrequent perivascular mononuclear infiltration; grade 2, frequent perivascular mononuclear infiltration; grade 3, extension of mononuclear infiltration into alveolar septum/space; and grade 4, diffuse perivascular, interstitial, and air space infiltration of mononuclear cells. The number of neutrophils was counted in a blinded fashion in 10 random fields per slide at ×1000 magnification. […] The data were expressed as mean±standard deviation. […]"}, "[3]": {"system": "lung allograft rejection (BN donor into F344 recipient)", "experiment": "Histological evaluation of acute rejection (IWF rejection score) of rat lung allografts on day 7", "format": "in vivo", "protocol": "Methods. Orthotopic left lung allotransplantation was performed from Brown Norway (donor) to Fisher 344 (recipient) rats. The role of activated neutrophils in the development of allograft rejection is believed to be biphasic. Therefore, specific CXC receptor inhibition was used with antileukinate in two dosing regimens. Recipients were allocated into 4 groups: A (early administration: n=6) received two doses of antileukinate (a hexapeptide), 10.0 mg/kg intramuscularly 24 hours before and immediately after transplantation, B (continuous administration: n=8) animals continuously received antileukinate intraperitoneally (10.0 mg/kg/day) for 7 days after surgery. Experimental groups A or B were compared with their individual control that received saline alone (Cont-A and Cont-B). The progression of rejection was assessed radiographically. Each animal was sacrificed on day 7 for histologic evaluation of allograft rejection based on pathologic rejection grade. Transplant Model. Rat left-lung transplantation was performed in a RT1 (MHC) incompatible donor-recipient combination from a BN donor into a F344 recipient. Complete graft rejection in this severely mismatched combination would be expected histologically and radiographically on day 7 postoperatively. […]"}, "[4]": {"system": "lung allograft rejection (BN donor into F344 recipient)", "experiment": "Radiographic evaluation (aeration score) of transplanted lungs", "format": "in vivo, rat", "conditions": "for aeration score (AS) of representative chest radiograph: day 7", "protocol": "Methods. Orthotopic left lung allotransplantation was performed from Brown Norway (donor) to Fisher 344 (recipient) rats. The role of activated neutrophils in the development of allograft rejection is believed to be biphasic. Therefore, specific CXC receptor inhibition was used with antileukinate in two dosing regimens. Recipients were allocated into 4 groups: A (early administration: n=6) received two doses of antileukinate (a hexapeptide), 10.0 mg/kg intramuscularly 24 hours before and immediately after transplantation, B (continuous administration: n=8) animals continuously received antileukinate intraperitoneally (10.0 mg/kg/day) for 7 days after surgery. Experimental groups A or B were compared with their individual control that received saline alone (Cont-A and Cont-B). The progression of rejection was assessed radiographically. Each animal was sacrificed on day 7 for histologic evaluation of allograft rejection based on pathologic rejection grade. Transplant Model. Rat left-lung transplantation was performed in a RT1 (MHC) incompatible donor-recipient combination from a BN donor into a F344 recipient. Complete graft rejection in this severely mismatched combination would be expected histologically and radiographically on day 7 postoperatively. The orthotopic left-lung transplantation procedure used in this study was a modification of the ‘cuff’ technique for vascular anastomosis (Mizuta et al., 1989). In brief, the lung grafts were flushed and immersed in ice-cold normal saline solution before implantation. Cuffs with internal diameters of 1.65 mm and 2.20 mm for pulmonary arterial and venous anastomosis, respectively, were used. The left main bronchus was anastomosed using 8-0 prolene running sutures. In rats, radiographic assessment of a left-lung transplantation graft can be obscured by the right lung. Therefore, a postcaval lobectomy on the recipient's right lung was performed immediately after implantation so as to facilitate radiographic assessment of the left-lung allograft. […] Experimental groups. Recipient animals were divided into 4 groups (Table 1). Animals from group A (early administration; n=6) received 0.5 ml of phosphate-buffered saline (PBS) solution containing a 10.0 mg/kg concentration of antileukinate intramuscularly 24 hours before (day −1) and immediately after transplantation (day 0). The control group against group A (Cont-A) received 0.5 ml of PBS in a similar fashion. Allograft recipients from group B (continuous administration; n=8) were given continuous antileukinate administration intraperitoneally for 7 days after transplantation, starting immediately after surgery using a micro-osmotic pump which was implanted into the peritoneal cavity two hours before lung transplantation. Antileukinate was released into the recipient's peritoneal cavity continuously at a dose of 10.0 mg/kg/day from days 0 to 7. Animals from Cont-B served as the control group against group B receiving the same amount of PBS without antileukinate in the same manner. Implantation of micro-osmotic pumps for groups B and Cont-B. Micro-osmotic pumps (model 2001; Alzet Corp., distributed by Charles River Laboratories, Sulzfeld, Germany) were used for intraperitoneal delivery of antileukinate. […] Transplanted lungs were serially assessed every other day by chest roentgenogram under spontaneous ventilation with halothane for sedation. […] Briefly, it was evaluated and graded 0 for an opaque lung, and up to 6 for a normal-appearing lung. […]"}, "[5]": {"conditions": "group B (continuous administration)"}},
  "data": [
    {"substance": "Ac-RRWWCR-NH2 [antileukinate]", "values": [
      {"measurement": "macroscopic finding of the allograft", "setting": "[1]; group A (early administration)", "result": "macroscopically adequate ventilation"},
      {"measurement": "macroscopic finding of the allograft", "setting": "[1]; [5]", "result": "macroscopically adequate ventilation"},
      {"measurement": "neutrophil count in the graft", "setting": "[2]; group A: 10.0 mg/kg im day -1 and day 0, Cont-A 55.7±10.0, p=0.093", "result": "34.8±28.7 /10HPFs"},
      {"measurement": "neutrophil count in the graft", "setting": "[2]; group B: continuous ip 10.0 mg/kg/day, Cont-B 47.9±18.4, p=0.046", "result": "32.1±9.6 /10 HPFs"},
      {"measurement": "rejection score (RS) of representative allograft", "setting": "[3]; group B (continuous administration), day 7, representative histology", "result": 1},
      {"measurement": "histologic rejection score (IWF), mean±standard deviation", "setting": "[3]; group B: continuous ip 10.0 mg/kg/day days 0 to 7, n=8, day 7, Cont-B 3.3±0.5, p=0.018, scale 0-4", "result": "2.1±1.0"},
      {"measurement": "aeration score versus control at each time point", "setting": "[4]; group A (early administration) versus Cont-A", "result": "No significant differences"},
      {"measurement": "aeration score (AS) of representative chest radiograph", "setting": "[4]; group A (early administration)", "result": 6},
      {"measurement": "aeration score versus control at each time point", "setting": "[4]; group B (continuous administration) versus Cont-B", "result": "No significant differences"},
      {"measurement": "aeration score (AS) of representative chest radiograph", "setting": "[4]; [5]", "result": 5},
      {"measurement": "aeration score (AS) on day 7, mean±standard deviation", "setting": "[4]; group B: continuous ip 10.0 mg/kg/day, Cont-B 1.6±1.3, p=0.16, score 0=opaque to 6=normal-appearing lung", "result": "2.6±2.1"}
    ]}
  ]
}
